{"source": "patent US20170015555A1", "about": "“LONG-TERM PRESERVATION AND NOVEL APPLICATION OF CHLOROUS ACID AQUEOUS SOLUTION FORMULATION” (priority 2013, published 2017)", "key": {"[1]": {"test": "Deodorizing effect (chemical deodorization, gas detector tube)", "conditions": "400 ppm, spray 20 cc", "source_text": "In order to evaluate tests on deodorizing effects, the present Example examined deodorizing effects by using standards regarding air freshening and deodorization ([II]-2 Method of Testing Deodorizing Efficacy (Chemical Deodorization)) set forth by the Air Fresheners and Deodorizers Conference (http://www.houkou.gr.jp/) as the efficacy testing method, which is adopted by Japan Food Research Laboratories.\nAmmonium odor: Ammonium Standard Solution II (Wako Pure Chemical Industries, for testing malodorous substances) Amine odor: methyl mercaptan standard solution (Wako Pure Chemical Industries, for testing malodorous substances) Sulfur odor: hydrogen sulfide (self-made, used hydrogen sulfide that was generated by adding sulfuric acid to zinc sulfide)\nGas detector tube made by GASTEC Corporation Ammonium odor: Detector tube ammonium 3 L made by GASTEC Corporation Amino odor: Detector tube methyl mercaptan 71 made by GASTEC Corporation Sulfur odor: Detector tube hydrogen sulfide 4 LL made by GASTEC Corporation\nTests were conducted in compliance with ([II]-2 Method of Testing Deodorizing Efficacy (Chemical Deodorization)) set forth by the Air Fresheners and Deodorizers Conference.\nThe tests were carried out by static culture method, using a commercially-available airbag with a spigot having a volume of about 10 L as test containers. The volume of airbags was appropriately changed in accordance with the size of the product.\nThe bags were filled with odorless air. Malodor concentrations were measured over time at room temperature (about 20° C.). (3 points or higher, detection tube method (FIG. 16), measured by an instrument analysis method or olfactory measurement method. When decrease in the blank was observed, the decrease was suitably corrected. When measuring by olfactory measuring method, the airbag spigot was opened for direct sniffing, or gas was transferred to an odor bag while wearing a mask to perform olfactory measurement in an autonomic respiration form. Measured air was not returned to the source).\nNext, for amine odor (methyl mercaptan), the residual concentrations were detected and recorded for control (no specimen), 20 ml (cc) of distilled water, sodium hypochlorite (expressed as Na hypochlorite, 400 ppm), and chlorous acid aqueous solution (expressed as CAAS, 400 ppm) prior to spraying and 0 hour, 3 hours, 6 hours, 9 hours, and 24 hours after spraying. The experiment was conducted twice."}, "[2]": {"tested_on": "Enterohemorrhagic Escherichia coli O157", "test": "Sterilizing effect on floor surface after wiping off imitation vomit, tatami mattress", "type": "cell-based", "conditions": "1000 ppm available chlorine", "source_text": "(§1) 1) Chlorous acid aqueous solution formulation (see Example 1: Table 11) Treatment sheet (material: 100% cotton): (about 27×40 cm) *Impregnated at a ratio of weight of treatment sheet (g): amount of liquid (ml)=1:3 2) Imitation vomit Miso solution: adjusted to pH of 2 with hydrochloric acid 3) Test Microbes that were Used E. coli: Escherichia coli IF03927 Staphylococcus aureus: Staphylococcus aureus IF0 12732 Thermoduric Microbes (Bacillus cereus): Bacillus cereus NBRC15305 Microbes of the genus Salmonella: Salmonella Enteritidis IF03313 Enterohemorrhagic Escherichia coli O157: Escherichia coli O157 Enterohemorrhagic Escherichia coli O111: Escherichia coli O111 Enterohemorrhagic Escherichia coli O26: Escherichia coli O26\n(§2) (1) Imitation vomit was spread in an area about the size of an A4 sheet. (2) 5 dry sheets were laid thereon. (3) An agent solution was poured on the dry sheets to wipe off the imitation vomit. (4) A cotton swab was soaked with sterile saline. A portion where imitation vomit was spread was scrubbed with the cotton swab to collect microbes remaining on the floor. After suspending in saline, the solution was spread on a petri dish and cultured. The number of each of the microbes was measured. (5) Test operations 3 and 4 were repeated a total of 7 times (repeated until the imitation vomit could be removed completely)."}, "[3]": {"tested_on": "Microbes of the genus Salmonella: Salmonella Enteritidis IF03313", "test": "Sterilizing effect on floor surface after wiping off imitation vomit, tatami mattress", "type": "cell-based", "conditions": "1000 ppm available chlorine", "source_text": "as §1, §2"}, "[4]": {"tested_on": "Enterohemorrhagic Escherichia coli O111", "test": "Sterilizing effect on floor surface after wiping off imitation vomit, tatami mattress", "type": "cell-based", "conditions": "1000 ppm", "source_text": "as §1, §2"}, "[5]": {"tested_on": "Bacillus cereus NBRC15305", "test": "Sterilizing effect on floor surface after wiping off imitation vomit, tatami mattress", "type": "cell-based", "conditions": "1000 ppm available chlorine", "source_text": "as §1, §2"}, "[6]": {"conditions": "first experiment (Table 55), 0 h after spraying"}, "[7]": {"conditions": "first experiment (Table 55), 3 h after spraying"}, "[8]": {"conditions": "first experiment (Table 55), 6 h after spraying"}, "[9]": {"conditions": "first experiment (Table 55), 9 h after spraying"}, "[10]": {"conditions": "first experiment (Table 55), 24 h after spraying"}, "[11]": {"conditions": "first experiment (Table 55), before spraying"}, "[12]": {"conditions": "second experiment (Table 56), 0 h after spraying"}, "[13]": {"conditions": "second experiment (Table 56), 3 h after spraying"}, "[14]": {"conditions": "second experiment (Table 56), 6 h after spraying"}, "[15]": {"conditions": "second experiment (Table 56), 9 h after spraying"}, "[16]": {"conditions": "second experiment (Table 56), 24 h after spraying"}, "[17]": {"conditions": "second experiment (Table 56), before spraying"}}}
{"smiles": "OCl", "note": "[Sodium Hypochlorite, sodium hypochlorite]", "values": [{"measurement": "residual concentration of methyl mercaptan, after correction (Control = 100)", "setting": "[1]; [6]", "value": 22}, {"measurement": "residual concentration of methyl mercaptan, before correction", "setting": "[1]; [6]", "value": 20, "unit": "ppm"}, {"measurement": "residual concentration of methyl mercaptan, after correction (Control = 100)", "setting": "[1]; [7]", "value": 0}, {"measurement": "residual concentration of methyl mercaptan, before correction", "setting": "[1]; [7]", "value": 0, "unit": "ppm"}, {"measurement": "residual concentration of methyl mercaptan, after correction (Control = 100)", "setting": "[1]; [8]", "value": 0}, {"measurement": "residual concentration of methyl mercaptan, before correction", "setting": "[1]; [8]", "value": 0, "unit": "ppm"}, {"measurement": "residual concentration of methyl mercaptan, after correction (Control = 100)", "setting": "[1]; [9]", "value": 14}, {"measurement": "residual concentration of methyl mercaptan, before correction", "setting": "[1]; [9]", "value": 5, "unit": "ppm"}, {"measurement": "residual concentration of methyl mercaptan, after correction (Control = 100)", "setting": "[1]; [10]", "value": 25}, {"measurement": "residual concentration of methyl mercaptan, before correction", "setting": "[1]; [10]", "value": 6, "unit": "ppm"}, {"measurement": "residual concentration of methyl mercaptan, after correction (Control = 100)", "setting": "[1]; [11]", "value": 100}, {"measurement": "residual concentration of methyl mercaptan, before correction", "setting": "[1]; [11]", "value": 90, "unit": "ppm"}, {"measurement": "residual concentration of methyl mercaptan, after correction (Control = 100)", "setting": "[1]; [12]", "value": 11}, {"measurement": "residual concentration of methyl mercaptan, before correction", "setting": "[1]; [12]", "value": 8, "unit": "ppm"}, {"measurement": "residual concentration of methyl mercaptan, after correction (Control = 100)", "setting": "[1]; [13]", "value": 11}, {"measurement": "residual concentration of methyl mercaptan, before correction", "setting": "[1]; [13]", "value": 5, "unit": "ppm"}, {"measurement": "residual concentration of methyl mercaptan, after correction (Control = 100)", "setting": "[1]; [14]", "value": 12}, {"measurement": "residual concentration of methyl mercaptan, before correction", "setting": "[1]; [14]", "value": 5, "unit": "ppm"}, {"measurement": "residual concentration of methyl mercaptan, after correction (Control = 100)", "setting": "[1]; [15]", "value": 24}, {"measurement": "residual concentration of methyl mercaptan, before correction", "setting": "[1]; [15]", "value": 7, "unit": "ppm"}, {"measurement": "residual concentration of methyl mercaptan, after correction (Control = 100)", "setting": "[1]; [16]", "value": 35}, {"measurement": "residual concentration of methyl mercaptan, before correction", "setting": "[1]; [16]", "value": 5, "unit": "ppm"}, {"measurement": "residual concentration of methyl mercaptan, after correction (Control = 100)", "setting": "[1]; [17]", "value": 100}, {"measurement": "residual concentration of methyl mercaptan, before correction", "setting": "[1]; [17]", "value": 70, "unit": "ppm"}, {"measurement": "Number of Times Wiped 1 Time (remaining microbes)", "setting": "[2]; stored at 25° C. Day 0", "value": "<10"}, {"measurement": "Number of Times Wiped 2 Times (remaining microbes)", "setting": "[2]; stored at 25° C. Day 0", "value": "<10"}, {"measurement": "Number of Times Wiped 3 Times (remaining microbes)", "setting": "[2]; stored at 25° C. Day 0", "value": "<10"}, {"measurement": "Number of Times Wiped 1 Time (remaining microbes)", "setting": "[2]; stored at 25° C. Day 7", "value": "<10"}, {"measurement": "Number of Times Wiped 2 Times (remaining microbes)", "setting": "[2]; stored at 25° C. Day 7", "value": "<10"}, {"measurement": "Number of Times Wiped 3 Times (remaining microbes)", "setting": "[2]; stored at 25° C. Day 7", "value": "<10"}, {"measurement": "microbes remaining, wiped 1 Time", "setting": "[3]; stored at 25° C. Day 0", "value": "<10"}, {"measurement": "microbes remaining, wiped 2 Times", "setting": "[3]; stored at 25° C. Day 0", "value": "<10"}, {"measurement": "microbes remaining, wiped 3 Times", "setting": "[3]; stored at 25° C. Day 0", "value": "<10"}, {"measurement": "microbes remaining, wiped 1 Time", "setting": "[3]; stored at 25° C. Day 7", "value": "1.5 × 10^3"}, {"measurement": "microbes remaining, wiped 2 Times", "setting": "[3]; stored at 25° C. Day 7", "value": "7.7 × 10^2"}, {"measurement": "microbes remaining, wiped 3 Times", "setting": "[3]; stored at 25° C. Day 7", "value": "1.8 × 10^2"}, {"measurement": "Number of Times Wiped 1 Time (remaining microbes)", "setting": "[4]; stored at 25° C. Day 0", "value": "<10"}, {"measurement": "Number of Times Wiped 2 Times (remaining microbes)", "setting": "[4]; stored at 25° C. Day 0", "value": "<10"}, {"measurement": "Number of Times Wiped 3 Times (remaining microbes)", "setting": "[4]; stored at 25° C. Day 0", "value": "<10"}, {"measurement": "Number of Times Wiped 1 Time (remaining microbes)", "setting": "[4]; stored at 25° C. Day 7", "value": "<10"}, {"measurement": "Number of Times Wiped 2 Times (remaining microbes)", "setting": "[4]; stored at 25° C. Day 7", "value": "<10"}, {"measurement": "Number of Times Wiped 3 Times (remaining microbes)", "setting": "[4]; stored at 25° C. Day 7", "value": "<10"}, {"measurement": "microbes remaining, wiped 1 Time", "setting": "[5]; stored at 25° C. Day 0", "value": "<10"}, {"measurement": "microbes remaining, wiped 2 Times", "setting": "[5]; stored at 25° C. Day 0", "value": "<10"}, {"measurement": "microbes remaining, wiped 3 Times", "setting": "[5]; stored at 25° C. Day 0", "value": "<10"}, {"measurement": "microbes remaining, wiped 1 Time", "setting": "[5]; stored at 25° C. Day 7", "value": "<10"}, {"measurement": "microbes remaining, wiped 2 Times", "setting": "[5]; stored at 25° C. Day 7", "value": "<10"}, {"measurement": "microbes remaining, wiped 3 Times", "setting": "[5]; stored at 25° C. Day 7", "value": "<10"}]}
